The source of these data is patent US20240246963A1, “BIFUNCTIONAL COMPOUNDS AND PHARMACEUTICAL USES THEREOF” (RISEN (SUZHOU) PHARMA TECH CO., LTD., priority 2022, published 2024).

The term Dmax denotes the greatest extent of degradation seen. A low value points to a partial loss of target. As a reminder, the DC50 is the midpoint of the concentration-degradation curve. Higher therefore signals a less potent degrader.

In the experiment the target is T1, RAS G12D protein (Homo sapiens, UniProt P01116, G12D).
T1 construct: host or cells: Aspc-1 (AsPC-1) cells
Kind of experiment: Protein degradation study (western blot) in Aspc-1 cells. The settings on record: for Dmax: ASPC1, G12D in Aspc-1 cells; for DC50: half-maximum degradation concentration on G12D in Aspc-1 cells. It counts as cell-based. Here is the method: Aspc-1 (Cobioer, CBP60546) cells in exponential growth phase were inoculated on a 6-well cell culture plate (Corning, 3516) at density of 1E6/well; and cells in the plate were cultured in a 37° C. incubator containing 5%-carbon dioxide. The next day, test compounds were dissolved in DMSO (Sigma, RNBF5902) for the preparation of a 10-mM concentration stock solution. The stock solution was diluted with complete medium (RPMI-1640 supplemented with 10% fetal bovine serum, 1% penicillin-streptomycin), yielding working solutions of various concentrations. The plate, after the addition of compounds, was placed in a 5% carbon dioxide incubator, and incubated at 37° C. for 24 hours (final DMSO concentration was 0.1%). The plate was then removed from the incubator, and the cells were washed twice with precooled PBS (Gibco, 14190250), followed by addition of 80 μL RIPA (CST, 9806S) lysis buffer (containing protease inhibitor (Invitrogen™, AM2696)) to each well. The adherent cells were scraped off with a cell scraper, and the cell lysate was transferred to a 1.5 mL centrifuge tube followed with a 30-minute incubation on ice. The lysate was then clarified with centrifugation at 12000 rpm for 10 min at 4° C. The supernatant was transferred into a new 1.5 mL centrifuge tube, and protein concentration was measured with BCA protein detection kit (Thermo Fisher, 23225). G12D protein level was assessed by western blot. A mixture of cell lysate (40 μL) and loading buffer (10 μL, 5×SDS (Beyotime, P0015L)) was denatured in a water-bath at 95° C. for 10 min. The denatured protein sample, at 30 μg/well, was loaded into a corresponding well of a 4-20% Bis-Tris gel (Kingsley, M00656). Protein samples were initially electrophoresed at 80 V for 30 minutes, followed by 120 V for 40 minutes, until the bromophenol blue strip ran to an appropriate position. After electrophoresis, iBlot2 (Life Technologies, IB21001) was used to transfer the separated samples onto PVDF film. The PVDF membrane was washed with double-distilled water and then blocked in TBST (Thermo Scientific, 28360) buffer containing 5% non-fat milk, for 2 hours. Blocked membrane was rinsed with tris-buffered saline tween-2 (Thermo Scientific, 28360, TBST) three times, 10 minutes each. Membrane was then incubated with 1:1000 diluted RAS Gi2D primary antibody (CST, cat #14429S) overnight at 4° C. Membrane was rinsed in a way described previously followed by 1 hour incubation of secondary antibody at room temperature. After washing the film for three times with TBST, ECL color developing solution was applied, and image was captured with Biorad Chemi Doc gel imager. The band gray value was quantified (Image Lab), and protein degradation level was calculated according to the following formulas:
Level of RAS G12D protein expression=(RAS G12D−compound/β-Actin)−compound/(RAS G12D−DMSO/β-Actin−DMSO)
Level of degradation (%)=(1−Rate of RAS G12D protein expression)×100
Symbols of −, +, ++, +++, ++++, +++++ indicate that the degradation level of Ras protein induced by test compounds was 10% or less, 10 to 30%, 30 to 60%, 60 to 70%, 70 to 75%, and greater than 75%, respectively. “NT” indicates not tested.
“NT” indicates not tested.
Background: Immunoblotting shows a protein as a band on a membrane.

[1] abbreviates: ASPC1, 24 h, 0.005 μM compound, Aspc-1 cells, 24 hours, read-out: Rate of protein degradation (%).
Setting [2] is: ASPC1, 24 h, 0.05 μM compound, Aspc-1 cells, 24 hours, read-out: Rate of protein degradation (%).

Each structure is given as a SMILES string.

T1 sequence (P01116 1-188 isoform P01116-2 G12D): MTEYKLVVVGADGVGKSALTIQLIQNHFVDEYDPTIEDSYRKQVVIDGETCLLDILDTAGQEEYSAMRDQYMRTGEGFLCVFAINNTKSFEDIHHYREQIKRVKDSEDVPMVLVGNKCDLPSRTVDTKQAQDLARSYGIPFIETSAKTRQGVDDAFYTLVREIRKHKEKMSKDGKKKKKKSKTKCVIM

For `CCc1c(F)ccc2cc(O)cc(-c3ncc4c(N5CCC[C@]6(CCO6)C5)nc(OCC5(CN6CCC7(CC6)CC(N6CCC(c8cnn(C9CCC(=O)NC9=O)c(=O)c8)CC6)C7)CC5)nc4c3F)c12` (stereo partly drawn) [Compound 227], the percent protein degradation at 0.005 µM under setting [1] is at most 10%. For the same molecule, the percent protein degradation at 0.05 µM under setting [2] fell in the range of 10 to 30%.

Molecule `CCc1c(F)ccc2cc(O)cc(-c3ncc4c(N5CCC[C@]6(CCO6)C5)nc(OCC5(CN6CCC(C(=O)N7CCC(c8ccc9c(C%10CCC(=O)NC%10=O)nn(C)c9c8)CC7)CC6)CC5)nc4c3F)c12` (stereo partly drawn) [Compound 220] gave a Dmax of 55% and a 50% degradation concentration (DC50) of 1 to 10 nM. Moreover, the percent protein degradation at 0.005 µM under setting [1] lay within 30 to 60%. Also, the percent protein degradation at 0.05 µM under setting [2] was in the range of 30 to 60%.

With `CCc1c(F)ccc2cc(O)cc(-c3ncc4c(N5CCC[C@@](C)(O)C5)nc(OCC5(CN6CCC7(CC6)CC(N6CCC(c8cc9c(cc8F)c(N8CCC(=O)NC8=O)nn9C)C(F)(F)C6)C7)CC5)nc4c3F)c12` (stereo partly drawn) [Compound 243], the greatest degradation seen (Dmax) was found to be 74% and the DC50 was 1 to 10 nM. Under setting [1], the percent protein degradation at 0.005 µM lay within 30 to 60%. Moreover, the percent protein degradation at 0.05 µM under setting [2] is over 75%.

On to `CCc1c(F)ccc2cc(O)cc(-c3ncc4c(N5CCC[C@]6(CCO6)C5)nc(OCC5(CN6CCC7(CC6)CC(N6CCC(c8ccc(C(=O)NC9CCC(=O)NC9=O)c(F)c8)CC6)C7)CC5)nc4c3F)c12` (stereo partly drawn) [Compound 209], for which the percent protein degradation at 0.005 µM under setting [1] is at most 10%. Moreover, under setting [2], the percent protein degradation at 0.05 µM is at most 10%.

As for `CCc1c(F)ccc2cc(O)cc(-c3ncc4c(N5CCC[C@]6(CCO6)C5)nc(OCC5(CN6CCC(N7CCC(c8ccc9c(N%10CCC(=O)NC%10=O)nn(C)c9c8)CC7)CC6)CC5)nc4c3F)c12` [Compound 218], the percent protein degradation at 0.005 µM under setting [1] is 10 to 30%. For the same molecule, the percent protein degradation at 0.05 µM under setting [2] was in the range of 30 to 60%.

Take `CCc1c(F)ccc2cc(O)cc(-c3ncc4c(N5CCC[C@]6(CCO6)C5)nc(OCC5(CN6CCC(CN7CCC(c8ccc9c(C%10CCC(=O)NC%10=O)nn(C)c9c8)CC7)C6)CC5)nc4c3F)c12` (stereo partly drawn) [Compound 215]: the percent protein degradation at 0.005 µM under setting [1] lay within 10 to 30%. Under setting [2], the percent protein degradation at 0.05 µM was 30 to 60%.

In the case of `CCc1c(F)ccc2cc(O)cc(-c3ncc4c(N5CCC[C@]6(CCO6)C5)nc(OCC5(CN6CCC(C(=O)N7CCC(c8cc9c(cc8F)c(N8CCC(=O)NC8=O)nn9C)CC7)CC6)CC5)nc4c3F)c12` [Compound 224], under setting [1], the percent protein degradation at 0.005 µM lay in the range of 10 to 30%. For the same molecule, the percent protein degradation at 0.05 µM under setting [2] is 10 to 30%.

`CCc1c(F)ccc2cc(O)cc(-c3ncc4c(N5CCC[C@]6(CCO6)C5)nc(OCC5(CN6CCC7(CC6)CC(N6CCC(c8ccc(NC9CCC(=O)NC9=O)nc8)CC6)C7)CC5)nc4c3F)c12` (stereo partly drawn) [Compound 229]: under setting [1], the percent protein degradation at 0.005 µM is 10 to 30%. Besides, under setting [2], the percent protein degradation at 0.05 µM was in the range of 30 to 60%.

For the molecule `CCc1c(F)ccc2cc(O)cc(-c3c(Cl)cc4c(N5CCC[C@]6(CCO6)C5)nc(OCC5(CN6CCC7(CC6)CC(N6CCC(c8cc9c(cc8F)c(N8CCC(=O)NC8=O)nn9C)CC6)C7)CC5)nc4c3F)c12` (atropisomer, axis not shown) [Compound 240], the “Rate of protein degradation (%)” value (0.005 μM compound, Aspc-1 cells, 24 hours) is reported as “+ (10 to 30%)” and the “Rate of protein degradation (%)” value (0.05 μM compound, Aspc-1 cells, 24 hours) was “+ (10 to 30%)”.

As for `CCc1c(F)ccc2cc(O)cc(-c3ccc4c(N5CCC[C@]6(CCO6)C5)nc(OCC5(CN6CCC7(CC6)CC(N6CCC(c8cc9c(cc8F)c(N8CCC(=O)NC8=O)nn9C)CC6)C7)CC5)nc4c3F)c12` [Compound 232], under setting [1], the percent protein degradation at 0.005 µM was 10 to 30%. Besides, the percent protein degradation at 0.05 µM under setting [2] was 30 to 60%.

As for `CCc1c(F)ccc2cc(O)cc(-c3ncc4c(N5CCC[C@]6(CCO6)C5)nc(OCC5(CN6CCC(N7CCC(c8cc9c(cc8F)c(N8CCC(=O)NC8=O)nn9C)CC7)CC6)CC5)nc4c3F)c12` [Compound 225], the percent protein degradation at 0.005 µM under setting [1] is 30 to 60%. Besides, under setting [2], the percent protein degradation at 0.05 µM lay in the range of 30 to 60%.

With `CCc1c(F)ccc2cc(O)cc(-c3ncc4c(N5CCC[C@@](C)(O)C5)nc(OCC5(CN6CCC7(CC6)CC(N6CC=C(c8ccc9c(c8)CN(C8CCC(=O)NC8=O)C9=O)CC6)C7)CC5)nc4c3F)c12` (stereo partly drawn) [Compound 196], the 50% degradation concentration (DC50) lay within 1 to 10 nM.

On to `C#Cc1c(F)ccc2cccc(-c3ncc4c(N5CCC[C@](C)(O)C5)nc(OCC5(CN6CCC7(CC6)CC(N6CCC(c8ccc9c%10c(cccc8%10)C(=O)N9C8CCC(=O)NC8=O)CC6)C7)CC5)nc4c3F)c12` (stereo partly drawn) [Compound 198], for which the percent protein degradation at 0.005 µM under setting [1] is 30 to 60%. Moreover, the percent protein degradation at 0.05 µM under setting [2] is 30 to 60%.

On to `CCc1c(F)ccc2cc(O)cc(-c3ncc4c(N5CCC[C@@](C)(O)C5)nc(OCC5(CN6CCC7(CC6)CC(N6CCC(c8ccc(NC9CCC(=O)NC9=O)cc8F)CC6)C7)CC5)nc4c3F)c12` (stereo partly drawn) [Compound 197], for which the percent protein degradation at 0.001 µM (ASPC1, 24 h, 1 nM compound, Aspc-1 cells, 24 hours, read-out: Rate of protein degradation (%)) lay in the range of 10 to 30%. For the same molecule, the percent protein degradation at 0.005 µM under setting [1] was in the range of 30 to 60%. Moreover, the percent protein degradation at 0.05 µM under setting [2] lay in the range of 60 to 70%.

The molecule `Cn1nc(N2CCC(=O)NC2=O)c2cc(F)c(C3CCN(C4CC5(CCN(CC6(COc7nc(N8CCC[C@]9(CCO9)C8)c8cnc(-c9cc(O)cc%10ccc(F)c(F)c9%10)c(F)c8n7)CC6)CC5)C4)CC3)cc21` [Compound 241] had a Dmax of 71% and a 50% degradation concentration (DC50) of 11 to 50 nM. Moreover, the percent protein degradation at 0.005 µM under setting [1] was in the range of 60 to 70%. Besides, the percent protein degradation at 0.05 µM under setting [2] lay in the range of 30 to 60%.

Consider `CCc1c(F)ccc2cc(O)cc(-c3ncc4c(N5CCC[C@]6(CCO6)C5)nc(OCC5(CN6CCC7(CC6)CC(N6CCC(c8ccc(C9CCC(=O)NC9=O)cn8)CC6)C7)CC5)nc4c3F)c12` (stereo partly drawn) [Compound 230], for which the percent protein degradation at 0.005 µM under setting [1] is at most 10%. Moreover, the percent protein degradation at 0.05 µM under setting [2] was at most 10%.

For `CCc1c(F)ccc2cc(O)cc(-c3ncc4c(N5CCC[C@@](C)(O)C5)nc(OC5CCN(CC(=O)N6CCC7(CC6)CC(N6CCC(c8ccc9c(C%10CCC(=O)NC%10=O)nn(C)c9c8)CC6)C7)CC5)nc4c3F)c12` (stereo partly drawn) [Compound 194], the DC50 was over 1000 nM.

For the molecule `CCc1c(F)ccc2cccc(-c3ncc4c(N5CCC[C@](C)(O)C5)nc(OCC5(CN6CCC7(CC6)CC(N6CCC(c8ccc9c%10c(cccc8%10)C(=O)N9C8CCC(=O)NC8=O)CC6)C7)CC5)nc4c3F)c12` (stereo partly drawn) [Compound 199], the percent protein degradation at 0.005 µM under setting [1] was in the range of 30 to 60%. In addition, under setting [2], the percent protein degradation at 0.05 µM lay within 30 to 60%.

Regarding `CCc1c(F)ccc2cc(O)cc(-c3ncc4c(N5CCC[C@]6(CCO6)C5)nc(OCC5(CN6CCC(N7CCC(c8cc9c(cc8F)c(N8CCC(=O)NC8=O)nn9C)CC7)C6)CC5)nc4c3F)c12` (stereo partly drawn) [Compound 226], under setting [1], the percent protein degradation at 0.005 µM was 10 to 30%. In addition, the percent protein degradation at 0.05 µM under setting [2] fell in the range of 30 to 60%.

Turning to `CCc1c(F)ccc2cc(O)cc(-c3c(Cl)cc4c(N5CCC[C@]6(CCO6)C5)nc(OCC5(CN6CCC7(CC6)CC(N6CCC(c8cc9c(cc8F)c(N8CCC(=O)NC8=O)nn9C)CC6)C7)CC5)nc4c3F)c12` (atropisomer, axis not shown) [Compound 239], under setting [1], the percent protein degradation at 0.005 µM lay in the range of 10 to 30%. Also, under setting [2], the percent protein degradation at 0.05 µM was at most 10%.

For `CCc1c(F)ccc2cc(O)cc(-c3ncc4c(N5CCC[C@]6(CCO6)C5)nc(OCC5(CN6CCC7(CC(c8cc9c(cc8F)c(N8CCC(=O)NC8=O)nn9C)C7)C6)CC5)nc4c3F)c12` (stereo partly drawn) [Compound 222], the percent protein degradation at 0.005 µM under setting [1] is at most 10%. For the same molecule, the percent protein degradation at 0.05 µM under setting [2] was at most 10%.

With `C#Cc1c(F)ccc2cc(O)cc(-c3ncc4c(N5CC=CCC5)nc(OCC5(CN6CCC7(CC6)CC(N6CCC(c8cc9c(cc8F)c(N8CCC(=O)NC8=O)nn9C)CC6)C7)CC5)nc4c3F)c12` [Compound 203], the percent protein degradation at 0.005 µM under setting [1] is 10 to 30%.
